This note sets out measurements from patent publication US20220348563A1, “KDM INHIBITORS AND USES THEREOF” (DANA-FARBER CANCER INSTITUTE, INC., priority 2019, published 2022).

One assay addresses KDM3B (Homo sapiens, UniProt Q7LBC6). In words: KDM3B AlphaScreen assay (Table 1). It counts as biochemical. As for the experimental part: AlphaScreen assays were performed in 384-well plate format using white AlphaPlate™ (PerkinElmer®, USA), and transfer of pre-diluted compound (100 nL) was performed using a Janus® Workstation (PerkinElmer®, USA). All subsequent steps were carried out in assay buffer (50 mM 4-(2-hydroxyethyl)-1-piperazineethanesulfonic acid (HEPES), pH 7.5, 0.1% (wt/vol) bovine serum albumin (BSA) and 0.01% (vol/vol) Tween®20). In brief, 10 μL of assay buffer containing demethylase enzyme (2 nM Final) was pre-incubated for 15 min with dilutions of compound. The enzyme reaction was initiated by the addition of substrate (5 μL) consisting of L-ascorbic acid (100 μM Final), […] (OG) (5 μM Final), FAS (10 μM Final) and histone H3(1-21)K9Me3-GGK Biotin (100 nM Final). The enzyme reaction was allowed to proceed for 30 minutes and was stopped by the addition of 5 μL of assay buffer containing ethylenediaminetetraacetic acid (EDTA) (40 mM) and NaCl (1,200 mM). The final concentration of DMSO was 1%. Streptavidin donor beads (0.08 mg/ml) and protein-A-conjugated acceptor beads (0.08 mg/ml) were preincubated for 1 h with antibody to methyl mark (300 ng/mL Final), and the presence of histone H3 product methyl mark was detected using the preincubated AlphaScreen™ beads (5 μL). […] Data were normalized to the (no-enzyme) control, and the IC50 values were determined via nonlinear regression curve fit using GraphPad Prism 7.
Data are expressed as IC50 (μM).
On the technique in general: In Alpha technology, singlet oxygen from a donor bead excites a nearby acceptor bead.

The next assay addresses T1, KDM3A (Homo sapiens, UniProt Q9Y4C1).
T1 sequence (Q9Y4C1 1-1321): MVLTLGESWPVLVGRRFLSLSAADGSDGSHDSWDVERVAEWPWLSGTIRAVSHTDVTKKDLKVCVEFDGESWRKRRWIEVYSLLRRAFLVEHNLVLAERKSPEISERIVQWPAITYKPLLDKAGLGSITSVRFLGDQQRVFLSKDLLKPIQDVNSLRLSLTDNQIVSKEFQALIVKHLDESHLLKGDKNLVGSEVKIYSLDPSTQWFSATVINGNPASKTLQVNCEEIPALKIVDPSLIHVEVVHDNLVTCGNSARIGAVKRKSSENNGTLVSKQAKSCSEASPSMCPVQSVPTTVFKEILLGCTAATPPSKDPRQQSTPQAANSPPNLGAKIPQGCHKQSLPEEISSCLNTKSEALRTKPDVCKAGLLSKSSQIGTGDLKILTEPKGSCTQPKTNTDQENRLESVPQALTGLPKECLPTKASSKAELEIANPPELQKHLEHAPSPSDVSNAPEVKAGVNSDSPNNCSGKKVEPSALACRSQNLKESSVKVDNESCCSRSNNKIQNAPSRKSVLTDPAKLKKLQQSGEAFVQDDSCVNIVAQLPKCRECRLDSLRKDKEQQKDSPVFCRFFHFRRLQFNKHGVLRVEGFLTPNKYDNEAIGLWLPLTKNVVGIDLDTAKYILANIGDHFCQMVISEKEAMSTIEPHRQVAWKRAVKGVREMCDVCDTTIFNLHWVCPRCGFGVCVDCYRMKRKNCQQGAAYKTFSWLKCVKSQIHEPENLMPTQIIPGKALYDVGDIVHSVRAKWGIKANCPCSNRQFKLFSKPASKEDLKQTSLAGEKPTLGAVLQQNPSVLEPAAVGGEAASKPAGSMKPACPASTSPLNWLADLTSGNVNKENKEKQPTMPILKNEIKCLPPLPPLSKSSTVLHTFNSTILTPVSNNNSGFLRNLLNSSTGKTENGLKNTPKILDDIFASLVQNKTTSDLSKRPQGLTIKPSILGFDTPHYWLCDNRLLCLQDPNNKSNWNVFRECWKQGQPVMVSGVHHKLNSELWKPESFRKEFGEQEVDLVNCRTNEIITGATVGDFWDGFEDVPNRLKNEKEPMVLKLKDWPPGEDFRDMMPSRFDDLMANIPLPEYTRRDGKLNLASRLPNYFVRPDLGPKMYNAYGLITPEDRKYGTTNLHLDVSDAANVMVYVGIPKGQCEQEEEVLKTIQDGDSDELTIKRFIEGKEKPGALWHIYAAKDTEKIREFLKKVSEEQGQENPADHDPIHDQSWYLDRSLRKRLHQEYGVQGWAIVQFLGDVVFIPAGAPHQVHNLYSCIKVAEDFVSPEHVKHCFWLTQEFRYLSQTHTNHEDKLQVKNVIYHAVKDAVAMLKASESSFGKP
In words: KDM3 AlphaScreen assay (Table 2, ASSAY 9). It counts as biochemical. As to conditions: for IC50: ASSAY 9. Here is the method:
AlphaScreen assays were performed in 384-well plate format using white AlphaPlate™ (PerkinElmer®, USA), and transfer of pre-diluted compound (100 nL) was performed using a Janus® Workstation (PerkinElmer®, USA). All subsequent steps were carried out in assay buffer (50 mM 4-(2-hydroxyethyl)-1-piperazineethanesulfonic acid (HEPES), pH 7.5, 0.1% (wt/vol) bovine serum albumin (BSA) and 0.01% (vol/vol) Tween®20). In brief, 10 μL of assay buffer containing demethylase enzyme (2 nM Final) was pre-incubated for 15 min with dilutions of compound. The enzyme reaction was initiated by the addition of substrate (5 μL) consisting of L-ascorbic acid (100 μM Final), […] (OG) (5 μM Final), FAS (10 μM Final) and histone H3(1-21)K9Me3-GGK Biotin (100 nM Final). The enzyme reaction was allowed to proceed for 30 minutes and was stopped by the addition of 5 μL of assay buffer containing ethylenediaminetetraacetic acid (EDTA) (40 mM) and NaCl (1,200 mM). The final concentration of DMSO was 1%. Streptavidin donor beads (0.08 mg/ml) and protein-A-conjugated acceptor beads (0.08 mg/ml) were preincubated for 1 h with antibody to methyl mark (300 ng/mL Final), and the presence of histone H3 product methyl mark was detected using the preincubated AlphaScreen™ beads (5 μL). Detection was allowed to proceed for 2 h at room temperature, and the assay plates were read on the EnVision® 2104 plate reader. Data were normalized to the (no-enzyme) control, and the IC50 values were determined via nonlinear regression curve fit using GraphPad Prism 7.

Sequence of KDM3B (Q7LBC6 whole entry, species assumed): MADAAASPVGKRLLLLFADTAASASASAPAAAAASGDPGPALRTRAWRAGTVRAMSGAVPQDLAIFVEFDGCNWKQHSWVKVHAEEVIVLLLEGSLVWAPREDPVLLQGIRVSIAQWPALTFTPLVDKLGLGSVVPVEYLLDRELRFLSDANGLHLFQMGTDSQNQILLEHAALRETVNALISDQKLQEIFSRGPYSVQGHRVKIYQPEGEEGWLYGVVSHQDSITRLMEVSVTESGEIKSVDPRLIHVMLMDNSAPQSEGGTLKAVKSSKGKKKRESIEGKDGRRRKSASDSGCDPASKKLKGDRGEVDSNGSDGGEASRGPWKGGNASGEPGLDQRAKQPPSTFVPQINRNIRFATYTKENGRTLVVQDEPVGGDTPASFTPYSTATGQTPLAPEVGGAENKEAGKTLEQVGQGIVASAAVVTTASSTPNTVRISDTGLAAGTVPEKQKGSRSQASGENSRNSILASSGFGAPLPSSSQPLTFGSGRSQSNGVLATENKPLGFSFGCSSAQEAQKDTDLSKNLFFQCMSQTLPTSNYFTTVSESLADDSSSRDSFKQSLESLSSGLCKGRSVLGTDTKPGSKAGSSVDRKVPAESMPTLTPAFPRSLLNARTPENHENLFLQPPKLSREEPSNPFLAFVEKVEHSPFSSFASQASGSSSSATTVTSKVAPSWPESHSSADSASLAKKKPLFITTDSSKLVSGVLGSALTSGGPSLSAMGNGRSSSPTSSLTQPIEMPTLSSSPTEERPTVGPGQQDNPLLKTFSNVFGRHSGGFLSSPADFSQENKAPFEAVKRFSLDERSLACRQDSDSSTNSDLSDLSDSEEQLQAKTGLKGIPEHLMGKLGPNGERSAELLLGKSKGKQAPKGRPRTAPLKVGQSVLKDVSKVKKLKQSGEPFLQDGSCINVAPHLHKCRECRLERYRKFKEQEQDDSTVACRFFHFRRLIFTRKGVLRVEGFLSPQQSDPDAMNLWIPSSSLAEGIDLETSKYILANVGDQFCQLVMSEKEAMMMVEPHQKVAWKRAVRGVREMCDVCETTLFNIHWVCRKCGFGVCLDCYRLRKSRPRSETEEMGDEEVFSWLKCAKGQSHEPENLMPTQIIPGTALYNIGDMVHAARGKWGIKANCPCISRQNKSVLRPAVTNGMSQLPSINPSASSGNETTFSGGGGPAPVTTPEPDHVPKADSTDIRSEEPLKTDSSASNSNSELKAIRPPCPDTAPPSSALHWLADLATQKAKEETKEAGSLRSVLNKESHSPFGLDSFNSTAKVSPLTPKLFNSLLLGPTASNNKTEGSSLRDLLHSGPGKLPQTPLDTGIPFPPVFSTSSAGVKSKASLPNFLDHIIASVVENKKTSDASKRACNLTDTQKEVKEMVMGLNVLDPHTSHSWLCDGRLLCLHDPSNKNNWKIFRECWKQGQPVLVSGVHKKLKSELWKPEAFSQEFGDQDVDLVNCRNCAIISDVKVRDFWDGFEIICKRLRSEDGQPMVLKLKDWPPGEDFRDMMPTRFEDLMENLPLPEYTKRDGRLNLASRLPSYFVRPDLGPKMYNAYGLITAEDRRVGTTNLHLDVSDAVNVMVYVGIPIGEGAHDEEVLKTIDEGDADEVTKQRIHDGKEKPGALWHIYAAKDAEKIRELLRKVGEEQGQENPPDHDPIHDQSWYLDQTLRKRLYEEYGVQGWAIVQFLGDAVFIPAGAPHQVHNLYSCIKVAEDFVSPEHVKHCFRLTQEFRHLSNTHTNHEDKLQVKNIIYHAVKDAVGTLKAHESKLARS

As usually defined, the IC50 is the concentration at which inhibition is half-maximal. Read a low IC50 as inhibition by little substance. For `CCOC(=O)c1ccc(N)c(C(=O)N2CCC(Oc3cc(-c4ccc(N(C)C)cc4)ccn3)CC2)c1` [KDM3-31, ethyl 4-amino-3-(4-((4-(4-(dimethylamino)phenyl)pyridin-2-yl)oxy)piperidine-1-carbonyl)benzoate], the IC50 turned out to be 9.43 µM on KDM3B (ASSAY 6), 8.26 µM on KDM3B (ASSAY 7) and 10.8 µM against KDM3B (ASSAY 8).
With `CN(C)c1ccc(-c2ccc(OC3CCN(C(=O)c4ccccc4OC(=O)c4ccccc4O)CC3)nc2)cc1` [JADA196, 2-(4-((5-(4-(dimethylamino)phenyl)pyridin-2-yl)oxy)piperidine-1-carbonyl)phenyl 2-hydroxybenzoate], the IC50 at KDM3A amounted to 16 µM. This lies in the double-digit micromolar range.
For `CN(C)c1ccc(CCC(=O)Nc2ccc(F)cc2C(=O)N2CCC(Oc3ccc(-c4ccc(N(C)C)cc4)cn3)CC2)cc1` [KDM3-23, 3-(4-(dimethylamino)phenyl)-N-(2-(4-((5-(4-(dimethylamino)phenyl)pyridin-2-yl)oxy)piperidine-1-carbonyl)-4-fluorophenyl)propanamide], the “KDM3B inhibition, verdict in words on Table 1” value on KDM3B is given as “potent KDM3B inhibitors”. The molecule further returned an IC50 at KDM3B (ASSAY 5) of 4.78 µM.
`CN(C)c1ccc(CCC(=O)Nc2ccc(F)cc2C(=O)N2CCC(Oc3cc(N4CCOCC4)ccn3)CC2)cc1` [KDM3-26, 3-(4-(dimethylamino)phenyl)-N-(4-fluoro-2-(4-((4-morpholinopyridin-2-yl)oxy)piperidine-1-carbonyl)phenyl)propanamide]: the IC50 against KDM3B (ASSAY 6) was determined as 74.3 µM.
On KDM3B (ASSAY 8), `CN(C)c1ccc(-c2ccnc(OC3CCN(C(=O)c4cc(C(=O)O)ccc4N)CC3)c2)cc1` [KDM3-43, 4-amino-3-(4-((4-(4-(dimethylamino)phenyl)pyridin-2-yl)oxy)piperidine-1-carbonyl)benzoic acid] yielded a concentration for half-maximal inhibition (IC50) of 61 µM. This counts as double-digit micromolar.
The molecule `CN(C)c1ccc(CCC(=O)Nc2ccc(C(F)(F)F)cc2C(=O)N2CCC(Oc3ccc(-c4ccc(N(C)C)cc4)cn3)CC2)cc1` [KDM3-53, 3-(4-(dimethylamino)phenyl)-N-(2-(4-((5-(4-(dimethylamino)phenyl)pyridin-2-yl)oxy)piperidine-1-carbonyl)-4-(trifluoromethyl)phenyl)propanamide] came in with an IC50 on KDM3A of 20 µM.
`CN(C)c1ccc(CCNC(=O)/C=C\C(=O)N2CCC(Oc3ccc(-c4ccc(N(C)C)cc4)cn3)CC2)cc1` [KDM3-38, (Z)-N-(4-(dimethylamino)phenethyl)-4-(4-((5-(4-(dimethylamino)phenyl)pyridin-2-yl)oxy)piperidin-1-yl)-4-oxobut-2-enamide]: the IC50 against KDM3B (ASSAY 7) came to 5.65 µM.
As to `CC(=O)Nc1ccc(C(=O)N2CCC(Oc3ccc(-c4ccc(N(C)C)cc4)cn3)CC2)c(N)c1` [KDM3-40, N-(3-amino-4-(4-((5-(4-(dimethylamino)phenyl)pyridin-2-yl)oxy)piperidine-1-carbonyl)phenyl)acetamide], at KDM3B (ASSAY 8), the IC50 amounted to 22.4 µM. This counts as double-digit micromolar.
Turning to `CN(C)c1ccc(-c2ccc(OC3CCN(C(=O)c4cn(S(=O)(=O)c5ccccc5)c5ccccc45)CC3)nc2)cc1` [Compound 11], at KDM3A, the “KDM3A inhibition, verdict in words on Table 2” value is “potent KDM3A inhibitors” and the IC50 stood at 33.6 µM.
As to `CN(C)c1ccc(CCC(=O)Nc2ccc(OC(F)(F)F)cc2C(=O)N2CCC(Oc3ccc(-c4ccc(N(C)C)cc4)cn3)CC2)cc1` [KDM3-59, 3-(4-(dimethylamino)phenyl)-N-(2-(4-((5-(4-(dimethylamino)phenyl)pyridin-2-yl)oxy)piperidine-1-carbonyl)-4-(trifluoromethoxy)phenyl)propanamide], it took 23.6 µM to reach half-maximal inhibition against KDM3A (IC50). This counts as double-digit micromolar.
At KDM3B (ASSAY 6), `CN(C)c1ccc(CCC(=O)Nc2ccc(F)cc2C(=O)N2CCC(Oc3cc(N4CCCCC4)ccn3)CC2)cc1` [KDM3-27, 3-(4-(dimethylamino)phenyl)-N-(4-fluoro-2-(4-((4-(piperidin-1-yl)pyridin-2-yl)oxy)piperidine-1-carbonyl)phenyl)propanamide] returned an IC50 of 11.3 µM.
On KDM3B (ASSAY 8), `CN(C)c1ccc(-c2ccc(OC3CCN(C(=O)c4cc(C(=O)O)ccc4N)CC3)nc2)cc1` [KDM3-41, 4-amino-3-(4-((5-(4-(dimethylamino)phenyl)pyridin-2-yl)oxy)piperidine-1-carbonyl)benzoic acid] displayed an IC50 of 49.4 µM.
With `CN(C)c1ccc(-c2ccc(OC3CCN(C(=O)c4ccccc4[N+](=O)[O-])CC3)nc2)cc1` [KDM3-39, (4-((5-(4-(dimethylamino)phenyl)pyridin-2-yl)oxy)piperidin-1-yl)(2-nitrophenyl)methanone], the IC50 was 10.9 µM on KDM3B (ASSAY 7) and 19.2 µM at KDM3B (ASSAY 8).
At KDM3B (ASSAY 1), `CN(C)c1ccc(CCNC(=O)CCC(=O)N2CCC(Oc3cc(-c4ccc(N(C)C)cc4)ccn3)CC2)cc1` [JADA84, N-(4-(dimethylamino)phenethyl)-4-(4-((4-(4-(dimethylamino)phenyl)pyridin-2-yl)oxy)piperidin-1-yl)-4-oxobutanamide] registered an IC50 of 53 µM.
For the molecule `CN(C)c1ccc(CCNC(=O)CCC(=O)N2CCC(Oc3ccc(-c4ccc(N(C)C)cc4)cn3)CC2)cc1` [JADA92, N-(4-(dimethylamino)phenethyl)-4-(4-((5-(4-(dimethylamino)phenyl)pyridin-2-yl)oxy)piperidin-1-yl)-4-oxobutanamide], the concentration for half-maximal inhibition (IC50) against KDM3B (ASSAY 1) is 8.78 µM; on KDM3B (ASSAY 2), 13.7 µM; on KDM3B (ASSAY 7) it was 9.79 µM.
As to `CN(C)c1ccc(-c2ccc(OC3CN(C(=O)c4ccccc4[N+](=O)[O-])C3)nc2)cc1` [KDM3-42, (3-((5-(4-(dimethylamino)phenyl)pyridin-2-yl)oxy)azetidin-1-yl)(2-nitrophenyl)methanone], the IC50 against KDM3B (ASSAY 8) stood at 11.8 µM.
The molecule `CN(C)c1ccc(CCCNC(=O)c2ccccc2C(=O)N2CCC(Oc3ccc(Br)cn3)CC2)cc1` [JADA133] came in with an IC50 against KDM3B (ASSAY 3) of 18.6 µM.
In the case of `CN(C)c1ccc(CCNC(=O)CCC(=O)N2CCC(Oc3ccc(C(F)(F)F)cn3)CC2)cc1` [JADA69, N-(4-(dimethylamino)phenethyl)-4-oxo-4-(4-((5-(trifluoromethyl)pyridin-2-yl)oxy)piperidin-1-yl)butanamide], the IC50 on KDM3B (ASSAY 1) came out at 27.9 µM. This counts as double-digit micromolar.
At KDM3B (ASSAY 5), `CN(C)c1ccc(CCC(=O)Nc2ccc(F)cc2C(=O)N2CCC(Oc3ccc(-c4ccc(CN5CCOCC5)cc4)cn3)CC2)cc1` [KDM3-24] registered an IC50 of 10.9 µM.
